Laboratory results from patent US9708334B2, “Substituted 2,4,5,6-tetrahydropyrrolo[3,4-c]pyrazole and 4,5,6,7-tetrahydro-2H-pyrazolo[4,3-c]pyridine compounds as GlyT1 inhibitors” (DART NEUROSCIENCE (CAYMAN) LTD., priority 2014, dated 2017).

molecular target: T1, GlyT1 (Homo sapiens, UniProt P48067); assay: Glycine Transporter 1 (GlyT1) uptake assay, scintillation proximity assay of [14C]-glycine uptake; type: cell-based; conditions: SPA, four parameter logistic fit, read-out: GlyT1 (pIC50) (converted)
T1 construct: expressed in transfected cells
T1 sequence (P48067 1-706): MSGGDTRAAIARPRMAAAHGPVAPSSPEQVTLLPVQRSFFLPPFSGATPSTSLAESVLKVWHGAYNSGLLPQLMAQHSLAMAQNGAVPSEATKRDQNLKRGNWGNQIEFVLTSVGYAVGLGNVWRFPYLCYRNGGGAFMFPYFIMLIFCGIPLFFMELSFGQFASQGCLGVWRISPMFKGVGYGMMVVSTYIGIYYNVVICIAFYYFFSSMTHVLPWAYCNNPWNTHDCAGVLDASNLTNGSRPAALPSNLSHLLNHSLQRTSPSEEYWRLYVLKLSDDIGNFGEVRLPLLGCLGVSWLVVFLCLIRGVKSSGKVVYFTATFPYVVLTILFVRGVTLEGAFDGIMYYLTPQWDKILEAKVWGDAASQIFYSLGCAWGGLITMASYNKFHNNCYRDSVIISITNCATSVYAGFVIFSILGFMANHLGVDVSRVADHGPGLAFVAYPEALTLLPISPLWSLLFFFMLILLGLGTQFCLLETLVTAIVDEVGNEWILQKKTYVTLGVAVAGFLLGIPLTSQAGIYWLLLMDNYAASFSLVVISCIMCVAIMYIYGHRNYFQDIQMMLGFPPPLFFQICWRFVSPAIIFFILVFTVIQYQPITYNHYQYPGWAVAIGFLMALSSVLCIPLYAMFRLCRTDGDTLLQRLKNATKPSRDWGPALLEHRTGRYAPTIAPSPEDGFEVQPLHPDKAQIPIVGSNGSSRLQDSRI
Outline: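 IC50 values derive from four-parameter logistic curves fitted to dose-response data. Uptake of [14C]-glycine measured in scintillation proximity format.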

| SMILES | IC50 |
| --- | --- |
| C[C@H](Oc1ccc(C#N)c(Cl)c1C(=O)N1Cc2cn(-c3ccccc3)nc2C1)C(F)(F)F [Example 327, 2-Chloro-3-{2-phenyl-2H 4H 5H 6H-pyrrolo[3,4-c]pyrazole-5-carbonyl}-4-{[(2S)-1 1 1-trifluoropropan-2-yl]oxy}benzonitrile] | < 100 nM |
| Cc1cc(-n2cc3c(n2)CN(C(=O)c2c(O[C@@H](C)C(F)(F)F)ccc(C#N)c2Cl)C3)ncc1F [Example 304, 2-Chloro-3-[2-(5-fluoro-4-methylpyridin-2-yl)-2H 4H 5H 6H-pyrrolo[3,4-c]pyrazole-5-carbonyl]-4-{[(2S)-1 1 1-trifluoropropan-2-yl]oxy}benzonitrile] | < 100 nM |
| COc1c(C#N)ccc(OCC(F)F)c1C(=O)N1Cc2cn(-c3ccnc(C)c3)nc2C1 [Example 333, 4-(2 2-Difluoroethoxy)-2-methoxy-3-[2-(2-methylpyridin-4-yl)-2H 4H 5H 6H-pyrrolo[3,4-c]pyrazole-5-carbonyl]benzonitrile] | 100 to 1000 nM |
| COc1c(C#N)ccc(OC(C)C(F)(F)F)c1C(=O)N1CCc2nn(-c3ccc(Cl)cn3)cc2C1 (stereo not shown) [Example 229, 3-[2-(5-Chloropyridin-2-yl)-2H 4H 5H 6H 7H-pyrazolo[4,3-c]pyridine-5-carbonyl]-2-methoxy-4-[(1 1 1-trifluoropropan-2-yl)oxy]benzonitrile] | 100 to 1000 nM |
| CCS(=O)(=O)c1ccc(O[C@@H](C)C(F)(F)F)c(C(=O)N2Cc3cn(-c4cccc(Cl)c4F)nc3C2)c1 [Example 150, 2-(3-Chloro-2-fluorophenyl)-5-[5-(ethanesulfonyl)-2-{[(2S)-1 1 1-trifluoropropan-2-yl]oxy}benzoyl]-2H 4H 5H 6H-pyrrolo[3,4-c]pyrazole] | < 100 nM |
| COc1c(C#N)ccc(O[C@@H](C)C(F)(F)F)c1C(=O)N1Cc2cn(-c3ccc(C)cn3)nc2C1 [Example 278, 2-Methoxy-3-[2-(5-methylpyridin-2-yl)-2H 4H 5H 6H-pyrrolo[3,4-c]pyrazole-5-carbonyl]-4-{[(2S)-1 1 1-trifluoropropan-2-yl]oxy}benzonitrile] | < 100 nM |
| CC(C)Oc1ccc(S(C)(=O)=O)cc1C(=O)N1Cc2cn(-c3ccc(F)cc3)nc2C1 [Example 1, (2-(4-Fluorophenyl)pyrrolo[3,4-c]pyrazol-5(2H,4H,6H)-yl)(2-isopropoxy-5-(methylsulfonyl)phenyl)methanone] | < 100 nM |
| COc1c(C#N)ccc(C2(F)CCOCC2)c1C(=O)N1Cc2cn(-c3cncc(F)c3)nc2C1 [Example 24, 4-(4-Fluorooxan-4-yl)-3-[2-(5-fluoropyridin-3-yl)-2H 4H 5H 6H-pyrrolo[3,4-c]pyrazole-5-carbonyl]-2-methoxybenzonitrile] | 100 to 1000 nM |
| Cc1cccc(-n2cc3c(n2)CN(C(=O)c2cc(S(=O)(=O)C(C)C)ccc2O[C@@H](C)C(F)(F)F)C3)c1F [Example 87, 2-(2-Fluoro-3-methylphenyl)-5-[5-(propane-2-sulfonyl)-2-{[(2S)-1 1 1-trifluoropropan-2-yl]oxy}benzoyl]-2H 4H 5H 6H-pyrrolo[3,4-c]pyrazole] | 100 to 1000 nM |
| COCCCn1cc2c(n1)CN(C(=O)c1cc(C#N)ccc1O[C@@H](C)C(F)(F)F)C2 [Example 393, 3-[2-(3-Methoxypropyl)-2H 4H 5H 6H-pyrrolo[3,4-c]pyrazole-5-carbonyl]-4-{[(2S)-1 1 1-trifluoropropan-2-yl]oxy}benzonitrile] | 100 to 1000 nM |
| CNC(=O)c1ccc(OC(C)C(F)(F)F)c(C(=O)N2CCc3nn(-c4ccc(F)cc4)cc3C2)c1Cl (stereo not shown) [Example 478, 2-Chloro-3-[2-(4-fluorophenyl)-2H 4H 5H 6H 7H-pyrazolo[4,3-c]pyridine-5-carbonyl]-N-methyl-4-[(1 1 1-trifluoropropan-2-yl)oxy]benzamide] | < 100 nM |
| Cc1cccc(-c2ccc(C#N)cc2C(=O)N2Cc3cn(C4CCOCC4)nc3C2)c1 [Example 558, 4-(3-Methylphenyl)-3-[2-(oxan-4-yl)-2H 4H 5H 6H-pyrrolo[3,4-c]pyrazole-5-carbonyl]benzonitrile] | > 10000 nM |
| CS(=O)(=O)c1ccc(N2CCC2)c(C(=O)N2CCc3nn(-c4ccccc4)cc3C2)c1 [Example 499, 1-(4-Methanesulfonyl-2-{2-phenyl-2H 4H 5H 6H 7H-pyrazolo[4,3-c]pyridine-5-carbonyl}phenyl)azetidine] | > 10000 nM |
| Cc1ccc(F)c(-n2cc3c(n2)CN(C(=O)c2cc(S(C)(=O)=O)ccc2OCC2(C)COC2)C3)c1 [Example 442, 2-(2-Fluoro-5-methylphenyl)-5-{5-methanesulfonyl-2-[(3-methyloxetan-3-yl)methoxy]benzoyl}-2H 4H 5H 6H-pyrrolo[3,4-c]pyrazole] | 100 to 1000 nM |
| CC(C)Oc1ccc(S(=O)(=O)C(C)C)cc1C(=O)N1Cc2cn(-c3ccc(F)c(F)c3)nc2C1 [Example 99, 2-(3 4-Difluorophenyl)-5-[2-(propan-2-yloxy)-5-(propane-2-sulfonyl)benzoyl]-2H 4H 5H 6H-pyrrolo[3,4-c]pyrazole] | 100 to 1000 nM |
| CCC(F)(CC)c1ccc(C#N)c(OC)c1C(=O)N1CCc2nn(-c3ccc(F)cc3)cc2C1 [Example 208] | 1000 to 10000 nM |
| COc1c(C#N)ccc(OCC2CC2)c1C(=O)N1Cc2cn(-c3ccc(F)cn3)nc2C1 [Example 318, 4-(Cyclopropylmethoxy)-3-[2-(5-fluoropyridin-2-yl)-2H 4H 5H 6H-pyrrolo[3,4-c]pyrazole-5-carbonyl]-2-methoxybenzonitrile] | < 100 nM |
| C[C@H](Oc1ccc(C#N)cc1C(=O)N1Cc2cn(-c3ccc(F)cc3)nc2C1)C(F)(F)F [Example 530, 3-[2-(4-Fluorophenyl)-2H 4H 5H 6H-pyrrolo[3,4-c]pyrazole-5-carbonyl]-4-{[(2S)-1 1 1-trifluoropropan-2-yl]oxy}benzonitrile] | 100 to 1000 nM |
| Cc1cc(-n2cc3c(n2)CN(C(=O)c2cc(C#N)ccc2-c2ccccc2F)C3)ccn1 [Example 554, 4-(2-Fluorophenyl)-3-[2-(2-methylpyridin-4-yl)-2H 4H 5H 6H-pyrrolo[3,4-c]pyrazole-5-carbonyl]benzonitrile] | 1000 to 10000 nM |
| COc1cc(-n2cc3c(n2)CN(C(=O)c2cc(C#N)ccc2O[C@@H](C)C(F)(F)F)C3)ccn1 [Example 364, 3-[2-(2-Methoxypyridin-4-yl)-2H 4H 5H 6H-pyrrolo[3,4-c]pyrazole-5-carbonyl]-4-{[(2S)-1 1 1-trifluoropropan-2-yl]oxy}benzonitrile] | < 100 nM |
| CC(C)Cn1cc2c(n1)CN(C(=O)c1cc(S(C)(=O)=O)ccc1O[C@@H](C)C(F)(F)F)C2 [Example 399, 5-(5-Methanesulfonyl-2-{[(2S)-1 1 1-trifluoropropan-2-yl]oxy}benzoyl)-2-(2-methylpropyl)-2H 4H 5H 6H-pyrrolo[3,4-c]pyrazole] | < 100 nM |
| COc1c(C#N)ccc(O[C@@H](C)C(F)(F)F)c1C(=O)N1CCc2[nH]nc(-c3ccc(C(F)(F)F)cc3)c2C1 [Example 257, 2-Methoxy-3-{3[4-(trifluoromethyl)phenyl]-1H 4H 5H 6H 7H-pyrazolo[4,3-c]pyridine-5-carbonyl}-4-{[(2S)-1 1 1-trifluoropropan-2-yl]oxy}benzonitrile] | 100 to 1000 nM |
| CC(C)Oc1ccc(S(C)(=O)=O)cc1C(=O)N1Cc2cn(C3CCC(F)(F)CC3)nc2C1 [Example 470, 2-(4 4-Difluorocyclohexyl)-5-[5-methanesulfonyl-2-(propan-2-yloxy)benzoyl]-2H 4H 5H 6H-pyrrolo[3,4-c]pyrazole] | < 100 nM |
| CC(Oc1ccc(C(N)=O)cc1C(=O)N1CCc2nn(-c3ccc(F)cc3)cc2C1)C(F)(F)F (stereo not shown) [Example 7, 3-(2-(4-Fluorophenyl)-4,5,6,7-tetrahydro-2H-pyrazolo[4,3-c]pyridine-5-carbonyl)-4-((1,1,1-trifluoropropan-2-yl)oxy)benzamide] | 1000 to 10000 nM |
| COc1c(C#N)ccc(C2CCC2)c1C(=O)N1CCc2nn(-c3ccccc3)cc2C1 [Example 488, 4-Cyclobutyl-2-methoxy-3-{2-phenyl-2H 4H 5H 6H 7H-pyrazolo[4,3-c]pyridine-5-carbonyl}benzonitrile] | 100 to 1000 nM |
| CCS(=O)(=O)c1ccc(O[C@@H](C)C(F)(F)F)c(C(=O)N2Cc3cn(-c4ccc(F)cc4)nc3C2)c1 [Example 41, 5-[5-(Ethanesulfonyl)-2-{[(2S)-1 1 1-trifluoropropan-2-yl]oxy}benzoyl]-2-(4-fluorophenyl)-2H 4H 5H 6H-pyrrolo[3,4-c]pyrazole] | < 100 nM |
| C[C@H](Oc1ccc(C#N)c(Cl)c1C(=O)N1CCc2nn(-c3ccc(F)cn3)cc2C1)C(F)(F)F [Example 222, 2-Chloro-3-[2-(5-fluoropyridin-2-yl)-2H 4H 5H 6H 7H-pyrazolo[4,3-c]pyridine-5-carbonyl]-4-{[(2S)-1 1 1-trifluoropropan-2-yl]oxy}benzonitrile] | 100 to 1000 nM |
| COc1c(C#N)ccc(OC(C)C)c1C(=O)N1Cc2cn(-c3cccc(C)n3)nc2C1 [Example 326, 2-Methoxy-3-[2-(6-methylpyridin-2-yl)-2H 4H 5H 6H-pyrrolo[3,4-c]pyrazole-5-carbonyl]-4-(propan-2-yloxy)benzonitrile] | < 100 nM |
